{"source": "patent US9193681B1", "about": "“Propionic acids, propionic acid esters, and related compounds” (Promentis Pharmaceuticals, Inc., priority 2014, dated 2015)", "key": {"rats [1]": {"system": "rats", "test": "Prepulse inhibition experiment (MK-801-induced deficit)", "assay_type": "in vivo, rat", "details": "3 mg/kg P.O., MK-801 0.1 mg/kg SC, MK-801 plus vehicle control about 18%", "protocol": "Rats were placed on a platform in a sound attenuating chamber (10.875″×14″×19.5″; Hamilton Kinder, Calif.) that rested on a motion sensing plate. During all sessions, the background noise was held constant at 60 dB. A matching session was conducted to determine the magnitude of the average startle response for each rat. This session consisted of a five minute habituation period followed by 20 trials; 17 trials involved the presentation of a single auditory stimulus (pulse stimulus; 50 dB above the background noise) and three trials in which a pre-pulse stimulus (12 db above background) was presented 100 ms before the pulse auditory stimulus. Rats were then assigned into the various treatment groups so that the magnitude of the startle response was equivalent across all groups. Two days later, a testing session was conducted to assess sensorimotor gating. One hour prior to testing, rats received a prodrug (0-100 mg/kg, P.O.) and 55 minutes later acute MK-801 maleate (0.1 mg/kg, SC). […] All startle responses were normalized to vehicle control, and the percent of prepulse inhibition was determined as 100−(average prepulse startle response/average startle stimulus alone)*100."}, "rats [2]": {"system": "rats", "test": "Elevated-plus maze", "assay_type": "in vivo, rat", "protocol": "Rats were tested in a standard elevated plus maze; testing occurred in a dimly illuminated room using only two lights mounted over the maze. Animals were allowed to habituate to the room for at least one hour prior to treatment. One hour prior to testing, rats received a Pro-4001 (0-30 mg/kg, P.O.). For testing, the rat was placed in the elevated plus maze for five minutes, alternating the starting position between facing an open arm and facing a closed arm. The session was recorded and an observer blind to treatment recorded the number of explorations, entries and time spent in the open arm. Explorations were defined as the rat placing two feet into an open arm without fully entering said arm. Entries were defined as the rat placing all four feet in an open arm. Time of entry in the open arm was recorded from the time the rat placed four feet in the open arm until two of the rats' feet entered the open square."}, "[3]": {"system": "human glial cells from brain astrocytoma (1321N1)", "test": "14C-cystine uptake in human glial cell culture", "assay_type": "cell-based", "details": "100 μM (most effective concentration); relative to untreated control; 1321N1 cells; three hour incubation", "protocol": "The screening of the compound was performed using an in vitro culture system of human glial cells from brain astrocytoma (1321N1). Cells were plated on 24 well plates coated with poly-D-lysine and laminin and grown in a balanced salt solution supplemented with 5% heat inactivated horse serum, 5% fetal bovine serum, 2 mM glutamine and glucose (total 21 mM). Cultures were maintained in humidified 5% CO2 incubators at 37° C. for 3-4 days before experiments were performed, at this time the cultures has formed a single confluent layer. For experiments, cultures are washed 3 times into a Na-free HEPES and HCO3^− buffered balanced salt solution. After 1 hour, the test compounds are added. Following a three hour incubation, ^14C-cystine (0.025 mCi/mL) was then added for 20 minutes. Following the ^14C-cystine exposure, cultures were washed 3 times with ice cold HEPES buffered saline solution and dissolved in 250 μl sodium dodecyl sulfate (0.1%). An aliquot (200 μl) was removed and added to scintillation fluid for counting. Values were normalized to ^14C-cystine uptake in untreated controls on the same experimental plate."}, "[4]": {"system": "mixed cortical cell cultures containing glial and neuronal cells", "test": "In vitro thiol experiment: intracellular cysteine levels", "assay_type": "cell-based, mice", "details": "100 μM", "protocol": "Mixed cortical cell cultures containing glial and neuronal cells were prepared from fetal (15-16 day gestation) mice as previously described. Lobner D, Comparison of the LDH and MTT assays for quantifying cell death: validity for neuronal apoptosis?, J Neurosci Methods, 2000, Mar. 15, 96(2), 147-152). Dissociated cortical cells were plated on 24-well plates coated with poly-D-lysine and laminin in Eagles' Minimal Essential Medium (MEM, Earle's salts, supplied glutamine-free) supplemented with 5% heat-inactivated horse serum, 5% fetal bovine serum, 2 mM glutamine and glucose (total 21 mM). Cultures were maintained in humidified 5% CO2 incubators at 37° C. […]\nSamples were then sonicated with a Fisher Scientific 60 Sonic Dismembrator. One fraction of this homogenate was analyzed with the Pierce BCA (bicinchoninic acid) method to determine protein concentration. The other fraction was filtered using 3 K molecular weight cutoff, polyethersulfone centrifugal protein filters, and analyzed for thiol content using high-performance liquid chromatography (ALF-115 column, 150×1.0 mm, 3 μm C18; mobile phase: 50 mM citric acid, 10 mM octanesulfonic acid, 2% acetonitrile, pH 2.8, 50 uL/min flow rate) with electrochemical detection (Decade II, Au working electrode, Flex Cell HyREF, 0.55V, Antec Leyden, Netherlands)."}, "[5]": {"system": "human glial cells from brain astrocytoma (1321N1)", "test": "3H-glutamate release from human glial cell culture", "assay_type": "cell-based", "details": "at 3 hours; 100 μM; relative to untreated control; 1321N1 cells", "protocol": "This assay also uses the cell culture system of human glial cells from brain astrocytoma (1321N1) described above. Initially, cells are washed, and ^3H-glutamate is added (PerkinElmer: 1 mCi/mL stock solution is diluted (30 μL+500 μL HBBSS) and 10 μL of diluted radiolabel is added to each well). Following a 1 hour incubation to load the cells with the labeled glutamate, the cells are washed again with HBBSS, and the drug is added. At 30, 90, and 180 minutes, 50 μL of extracellular media is sampled from each well and is measured using a Beckman LS 6500 scintillation counter."}}, "data": [{"smiles": "CCOC(=O)[C@H](CSC(=O)[C@@H](N)C(C)C)NC(C)=O.Cl", "note": "[Pro-4001, ethyl (2R)-3-{[(2S)-2-amino-3-methylbutanoyl]sulfanyl}-2-acetamido-propanoate hydrochloride]", "values": [{"measurement": "% prepulse inhibition", "setting": "rats [1]", "value": "about 27%"}, {"measurement": "increase of time spent on the open arm", "setting": "rats [2]; 10 mg/kg PO", "value": 50, "unit": "%"}, {"measurement": "time spent on the open arms", "setting": "rats [2]; 10 mg/kg PO", "value": "around 21 seconds"}, {"measurement": "increase of time spent on the open arm", "setting": "rats [2]; 30 mg/kg PO", "value": 64, "unit": "%"}, {"measurement": "time spent on the open arms", "setting": "rats [2]; 30 mg/kg PO", "value": "around 25 seconds"}, {"measurement": "decrease in 14C-cystine uptake", "setting": "[3]", "value": 50, "unit": "%"}, {"measurement": "intracellular cysteine concentration", "setting": "[4]", "value": 0.78, "unit": "µM"}, {"measurement": "intracellular cysteine concentration, times the control value", "setting": "[4]", "value": "approximately 5 times"}, {"measurement": "increase in 3H-glutamate release", "setting": "[5]", "value": 175, "unit": "%"}]}]}
